Laboratory results: patent US20230295200A1 (REGENTS OF THE UNIVERSITY OF MICHIGAN, priority 2022, published 2023)

Target: T1, STAT6 protein (Homo sapiens, UniProt P42226)
T1 sequence (P42226 1-847): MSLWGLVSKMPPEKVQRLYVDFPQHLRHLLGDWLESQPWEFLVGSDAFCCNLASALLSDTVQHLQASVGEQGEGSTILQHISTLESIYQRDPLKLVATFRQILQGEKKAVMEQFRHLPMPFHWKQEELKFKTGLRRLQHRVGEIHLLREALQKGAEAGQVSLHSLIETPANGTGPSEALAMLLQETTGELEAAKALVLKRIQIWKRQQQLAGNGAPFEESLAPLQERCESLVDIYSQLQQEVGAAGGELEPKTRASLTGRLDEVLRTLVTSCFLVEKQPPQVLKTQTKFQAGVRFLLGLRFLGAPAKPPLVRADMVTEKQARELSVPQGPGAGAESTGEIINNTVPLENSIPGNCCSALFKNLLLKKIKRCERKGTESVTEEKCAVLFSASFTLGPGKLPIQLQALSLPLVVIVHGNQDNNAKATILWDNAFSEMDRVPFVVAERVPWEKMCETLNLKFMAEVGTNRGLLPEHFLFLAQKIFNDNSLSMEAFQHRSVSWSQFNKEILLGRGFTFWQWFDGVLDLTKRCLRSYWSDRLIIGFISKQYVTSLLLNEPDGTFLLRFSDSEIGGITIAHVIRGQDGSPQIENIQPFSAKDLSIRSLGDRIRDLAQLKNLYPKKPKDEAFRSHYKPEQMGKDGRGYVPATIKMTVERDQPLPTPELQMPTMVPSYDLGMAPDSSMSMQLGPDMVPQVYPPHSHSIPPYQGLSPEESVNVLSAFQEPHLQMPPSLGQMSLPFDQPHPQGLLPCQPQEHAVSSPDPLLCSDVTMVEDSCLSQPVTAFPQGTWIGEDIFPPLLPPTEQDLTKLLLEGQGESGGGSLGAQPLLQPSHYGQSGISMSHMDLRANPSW
Test: Fluorescence polarization (FP) binding assay, STAT6
Conditions: FP competition, 5 nM fluorescein-labeled tracer, 200 nM protein, PBS pH7.4; read-out: Binding STAT6
Summary of the method: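 Tracer (fluorescein-labeled, 5 nM) was mixed with 200 nM STAT5 and/or STAT6 in PBS pH 7.4 plus 0.01% BGG, 0.01% Tween-20, 2 mM DTT. After 15 min shaking and 1 h at room temperature to equilibrium, polarization was measured and constants derived by nonlinear fitting.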

With `CN(C)CC[C@H](NC(=O)c1cc2cc(C(F)(F)P(=O)(O)O)ccc2s1)C(=O)N1CCC[C@H]1C(=O)N1CCO[C@H](c2ccccc2)C1` [Compound 275, ((2-(((S)-4-(dimethylamino)-1-oxo-1-((S)-2-((R)-2-phenylmorpholine-4-carbonyl)pyrrolidin-1-yl)butan-2-yl)carbamoyl)benzo[b]thiophen-5-yl)difluoromethyl)phosphonic acid] as the molecule, how does the Ki read?
Its Ki is 100 to 1000 nM.

Which Ki does the source give for `NC(=O)CC[C@H](NC(=O)c1cc2cc(C(F)(F)P(=O)(O)O)ccc2s1)C(=O)N1CCC[C@H]1C(=O)N1CCO[C@H](c2ccccc2)C1` [Compound 276, ((2-(((S)-5-amino-1,5-dioxo-1-((S)-2-((R)-2-phenylmorpholine-4-carbonyl)pyrrolidin-1-yl)pentan-2-yl)carbamoyl)benzo[b]thiophen-5-yl)difluoromethyl)phosphonic acid] here?
Its Ki is 100 to 1000 nM.

Which Ki does the source give for `CC(C)(C)c1ccc(C[C@H](NC(=O)c2cc3cc(C(F)(F)P(=O)(O)O)ccc3s2)C(=O)N2CCC[C@H]2C(=O)N2CCO[C@H](c3ccccc3)C2)cc1` [Compound 277, ((2-(((S)-3-(4-(tert-butyl)phenyl)-1-oxo-1-((S)-2-((R)-2-phenylmorpholine-4-carbonyl)pyrrolidin-1-yl)propan-2-yl)carbamoyl)benzo[b]thiophen-5-yl)difluoromethyl)phosphonic acid] here?
The Ki was less than 100 nM.

`O=C(N[C@@H](Cc1ccc(F)c(F)c1)C(=O)N1CCC[C@H]1C(=O)N1CCO[C@H](c2ccccc2)C1)c1cc2cc(C(F)(F)P(=O)(O)O)ccc2s1` [Compound 278, ((2-(((S)-3-(3,4-difluorophenyl)-1-oxo-1-((S)-2-((R)-2-phenylmorpholine-4-carbonyl)pyrrolidin-1-yl)propan-2-yl)carbamoyl)benzo[b]thiophen-5-yl)difluoromethyl)phosphonic acid] was tested. Which Ki did it give?
Its Ki is 100 to 1000 nM.

Which Ki does the source give for `O=C(N[C@H](C(=O)N1CCC[C@H]1C(=O)N1CCO[C@H](c2ccccc2)C1)C1CCCCC1)c1cc2cc(C(F)(F)P(=O)(O)O)ccc2s1` [Compound 279, ((2-(((S)-1-cyclohexyl-2-oxo-2-((S)-2-((R)-2-phenylmorpholine-4-carbonyl)pyrrolidin-1-yl)ethyl)carbamoyl)benzo[b]thiophen-5-yl)difluoromethyl)phosphonic acid] here?
The Ki was 100 to 1000 nM.

`NCCC[C@H](NC(=O)c1cc2cc(C(F)(F)P(=O)(O)O)ccc2s1)C(=O)N1CCC[C@H]1C(=O)N1CCO[C@H](c2ccccc2)C1` [Compound 280, ((2-(((S)-5-amino-1-oxo-1-((S)-2-((R)-2-phenylmorpholine-4-carbonyl)pyrrolidin-1-yl)pentan-2-yl)carbamoyl)benzo[b]thiophen-5-yl)difluoromethyl)phosphonic acid] was tested. Which Ki did it give?
Its Ki is less than 100 nM.

With `N#Cc1cccc(C[C@H](NC(=O)c2cc3cc(C(F)(F)P(=O)(O)O)ccc3s2)C(=O)N2CCC[C@H]2C(=O)N2CCO[C@H](c3ccccc3)C2)c1` [Compound 281, ((2-(((S)-3-(3-cyanophenyl)-1-oxo-1-((S)-2-((R)-2-phenylmorpholine-4-carbonyl)pyrrolidin-1-yl)propan-2-yl)carbamoyl)benzo[b]thiophen-5-yl)difluoromethyl)phosphonic acid] as the molecule, how does the Ki read?
Its Ki is less than 100 nM.

`O=C(N[C@@H](Cc1cccc([N+](=O)[O-])c1)C(=O)N1CCC[C@H]1C(=O)N1CCO[C@H](c2ccccc2)C1)c1cc2cc(C(F)(F)P(=O)(O)O)ccc2s1` [Compound 282, (difluoro(2-(((S)-3-(3-nitrophenyl)-1-oxo-1-((S)-2-((R)-2-phenylmorpholine-4-carbonyl)pyrrolidin-1-yl)propan-2-yl)carbamoyl)benzo[b]thiophen-5-yl)methyl)phosphonic acid] was tested. Which Ki did it give?
The Ki was less than 100 nM.

How did the Ki turn out when `Cc1cccc(C[C@H](NC(=O)c2cc3cc(C(F)(F)P(=O)(O)O)ccc3s2)C(=O)N2CCC[C@H]2C(=O)N2CCO[C@H](c3ccccc3)C2)c1` [Compound 283, (difluoro(2-(((S)-1-oxo-1-((S)-2-((R)-2-phenylmorpholine-4-carbonyl)pyrrolidin-1-yl)-3-(m-tolyl)propan-2-yl)carbamoyl)benzo[b]thiophen-5-yl)methyl)phosphonic acid] was run?
The Ki was 100 to 1000 nM.

With `COc1ccc(C[C@H](NC(=O)c2cc3cc(C(F)(F)P(=O)(O)O)ccc3s2)C(=O)N2CCC[C@H]2C(=O)N2CCO[C@H](c3ccccc3)C2)cc1` [Compound 284, (difluoro(2-(((S)-3-(4-methoxyphenyl)-1-oxo-1-((S)-2-((R)-2-phenylmorpholine-4-carbonyl)pyrrolidin-1-yl)propan-2-yl)carbamoyl)benzo[b]thiophen-5-yl)methyl)phosphonic acid] as the molecule, how does the Ki read?
The Ki was 100 to 1000 nM.

`O=C(N[C@@H](Cc1ccc2ccccc2c1)C(=O)N1CCC[C@H]1C(=O)N1CCO[C@H](c2ccccc2)C1)c1cc2cc(C(F)(F)P(=O)(O)O)ccc2s1` [Compound 285, (difluoro(2-(((S)-3-(naphthalen-2-yl)-1-oxo-1-((S)-2-((R)-2-phenylmorpholine-4-carbonyl)pyrrolidin-1-yl)propan-2-yl)carbamoyl)benzo[b]thiophen-5-yl)methyl)phosphonic acid] was tested. Which Ki did it give?
The Ki was 100 to 1000 nM.

With `O=C(N[C@@H](Cc1nc2ccccc2s1)C(=O)N1CCC[C@H]1C(=O)N1CCO[C@H](c2ccccc2)C1)c1cc2cc(C(F)(F)P(=O)(O)O)ccc2s1` [Compound 286, ((2-(((S)-3-(benzo[d]thiazol-2-yl)-1-oxo-1-((S)-2-((R)-2-phenylmorpholine-4-carbonyl)pyrrolidin-1-yl)propan-2-yl)carbamoyl)benzo[b]thiophen-5-yl)difluoromethyl)phosphonic acid] as the molecule, how does the Ki read?
Its Ki is 100 to 1000 nM.

Which Ki does the source give for `O=C(N[C@@H](Cc1cccs1)C(=O)N1CCC[C@H]1C(=O)N1CCO[C@H](c2ccccc2)C1)c1cc2cc(C(F)(F)P(=O)(O)O)ccc2s1` [Compound 287, (difluoro(2-(((S)-1-oxo-1-((S)-2-((R)-2-phenylmorpholine-4-carbonyl)pyrrolidin-1-yl)-3-(thiophen-2-yl)propan-2-yl)carbamoyl)benzo[b]thiophen-5-yl)methyl)phosphonic acid] here?
Its Ki is 100 to 1000 nM.

Which Ki does the source give for `O=C(N[C@@H](CCc1ccccc1)C(=O)N1CCC[C@H]1C(=O)N1CCO[C@H](c2ccccc2)C1)c1cc2cc(C(F)(F)P(=O)(O)O)ccc2s1` [Compound 288, (difluoro(2-(((S)-1-oxo-4-phenyl-1-((S)-2-((R)-2-phenylmorpholine-4-carbonyl)pyrrolidin-1-yl)butan-2-yl)carbamoyl)benzo[b]thiophen-5-yl)methyl)phosphonic acid] here?
The Ki was 100 to 1000 nM.

Which Ki does the source give for `O=C(N[C@@H](CCCc1ccccc1)C(=O)N1CCC[C@H]1C(=O)N1CCO[C@H](c2ccccc2)C1)c1cc2cc(C(F)(F)P(=O)(O)O)ccc2s1` [Compound 289, (difluoro(2-(((S)-1-oxo-5-phenyl-1-((S)-2-((R)-2-phenylmorpholine-4-carbonyl)pyrrolidin-1-yl)pentan-2-yl)carbamoyl)benzo[b]thiophen-5-yl)methyl)phosphonic acid] here?
The Ki was less than 100 nM.

For `O=C(N[C@@H](CC1CCNCC1)C(=O)N1CCC[C@H]1C(=O)N1CCO[C@H](c2ccccc2)C1)c1cc2cc(C(F)(F)P(=O)(O)O)ccc2s1` [Compound 290, (difluoro(2-(((S)-1-oxo-1-((S)-2-((R)-2-phenylmorpholine-4-carbonyl)pyrrolidin-1-yl)-3-(piperidin-4-yl)propan-2-yl)carbamoyl)benzo[b]thiophen-5-yl)methyl)phosphonic acid], which Ki is on record?
Its Ki is 100 to 1000 nM.

How did the Ki turn out when `CN1CCC(C[C@H](NC(=O)c2cc3cc(C(F)(F)P(=O)(O)O)ccc3s2)C(=O)N2CCC[C@H]2C(=O)N2CCO[C@H](c3ccccc3)C2)CC1` [Compound 291, (difluoro(2-(((S)-3-(1-methylpiperidin-4-yl)-1-oxo-1-((S)-2-((R)-2-phenylmorpholine-4-carbonyl)pyrrolidin-1-yl)propan-2-yl)carbamoyl)benzo[b]thiophen-5-yl)methyl)phosphonic acid] was run?
Its Ki is 100 to 1000 nM.

With `CCN1CCC(C[C@H](NC(=O)c2cc3cc(C(F)(F)P(=O)(O)O)ccc3s2)C(=O)N2CCC[C@H]2C(=O)N2CCO[C@H](c3ccccc3)C2)CC1` [Compound 292, ((2-(((S)-3-(1-ethylpiperidin-4-yl)-1-oxo-1-((S)-2-((R)-2-phenylmorpholine-4-carbonyl)pyrrolidin-1-yl)propan-2-yl)carbamoyl)benzo[b]thiophen-5-yl)difluoromethyl)phosphonic acid] as the molecule, how does the Ki read?
Its Ki is 100 to 1000 nM.

With `CC(C)CCN1CCC(C[C@H](NC(=O)c2cc3cc(C(F)(F)P(=O)(O)O)ccc3s2)C(=O)N2CCC[C@H]2C(=O)N2CCO[C@H](c3ccccc3)C2)CC1` [Compound 293, (difluoro(2-(((S)-3-(1-isopentylpiperidin-4-yl)-1-oxo-1-((S)-2-((R)-2-phenylmorpholine-4-carbonyl)pyrrolidin-1-yl)propan-2-yl)carbamoyl)benzo[b]thiophen-5-yl)methyl)phosphonic acid] as the molecule, how does the Ki read?
Its Ki is 100 to 1000 nM.
